Measurements from ChEMBL document CHEMBL6182925 (J Med Chem, 2025).
≈ marks a conversion by molar mass, not a printed value.

Key:
[1] = Oral bioavailability in rat; assay type: ADME, organism-based; conditions: in vivo
[2] = Oral bioavailability in mouse; assay type: ADME, organism-based; conditions: in vivo
[3] = Kinetic solubility of compound at pH 2; assay type: physicochemical; conditions: buffer, read-out: Kinetic_solubility
[4] = target: 5-hydroxytryptamine receptor 2B (Homo sapiens) (UniProt P41595); assay: Inhibition of 5-HT2B receptor (unknown origin) at 10 uM by CEREP analysis relative to control
[5] = target: T1, Alpha-2A adrenergic receptor (Homo sapiens) (UniProt P08913); assay: Inhibition of alpha 2A adrenergic receptor (unknown origin) at 10 uM by CEREP analysis relative to control
T1 sequence (whole entry): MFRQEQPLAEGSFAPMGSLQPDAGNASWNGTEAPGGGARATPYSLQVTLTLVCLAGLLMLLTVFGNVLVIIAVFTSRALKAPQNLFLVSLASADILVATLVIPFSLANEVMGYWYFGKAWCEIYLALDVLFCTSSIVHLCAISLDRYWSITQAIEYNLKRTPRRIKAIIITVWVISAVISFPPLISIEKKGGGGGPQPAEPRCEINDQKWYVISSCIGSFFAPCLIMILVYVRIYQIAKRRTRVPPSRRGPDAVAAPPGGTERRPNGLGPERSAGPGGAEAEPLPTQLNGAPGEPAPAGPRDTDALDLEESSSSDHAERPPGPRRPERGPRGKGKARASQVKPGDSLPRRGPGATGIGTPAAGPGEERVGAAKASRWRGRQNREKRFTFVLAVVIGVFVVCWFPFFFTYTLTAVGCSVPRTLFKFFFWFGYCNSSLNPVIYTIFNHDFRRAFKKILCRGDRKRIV

Homo sapiens = species on record: Homo sapiens; assay: Inhibition of sodium channel site 2 (unknown origin) at 10 uM by CEREP analysis relative to control
[6] = Kinetic solubility of compound at pH 4.5; assay type: physicochemical; conditions: buffer, read-out: Kinetic_solubility
[7] = target: cGMP-inhibited 3',5'-cyclic phosphodiesterase 3A (Homo sapiens) (UniProt Q14432); assay: Inhibition of PDE3A (unknown origin) at 10 uM by CEREP analysis relative to control
[8] = target: 5-hydroxytryptamine receptor 1B (Homo sapiens) (UniProt P28222); assay: Inhibition of 5-HT1B receptor (unknown origin) at 10 uM by CEREP analysis relative to control
BaF3 [9] = assay: cells; conditions: Mus musculus, BaF3, 72 h
L-type calcium channel = L-type calcium channel (Homo sapiens, UniProt O60840+Q01668+Q13698+Q13936); assay: Inhibition of Calcium channel L-type (unknown origin) at 10 uM by CEREP analysis relative to control; assay type: protein assay
hERG = hERG (Homo sapiens, UniProt Q12809); assay: Inhibition of hERG at 10 uM by CEREP analysis relative to control; assay type: toxicity
cells = conditions: Mus musculus, BaF3/TRP-Met, 72 h
[10] = target: T2, Muscarinic acetylcholine receptor M2 (Homo sapiens) (UniProt P08172); assay: Inhibition of muscarinic M2 receptor (unknown origin) at 10 uM by CEREP analysis relative to control
T2 sequence (whole entry): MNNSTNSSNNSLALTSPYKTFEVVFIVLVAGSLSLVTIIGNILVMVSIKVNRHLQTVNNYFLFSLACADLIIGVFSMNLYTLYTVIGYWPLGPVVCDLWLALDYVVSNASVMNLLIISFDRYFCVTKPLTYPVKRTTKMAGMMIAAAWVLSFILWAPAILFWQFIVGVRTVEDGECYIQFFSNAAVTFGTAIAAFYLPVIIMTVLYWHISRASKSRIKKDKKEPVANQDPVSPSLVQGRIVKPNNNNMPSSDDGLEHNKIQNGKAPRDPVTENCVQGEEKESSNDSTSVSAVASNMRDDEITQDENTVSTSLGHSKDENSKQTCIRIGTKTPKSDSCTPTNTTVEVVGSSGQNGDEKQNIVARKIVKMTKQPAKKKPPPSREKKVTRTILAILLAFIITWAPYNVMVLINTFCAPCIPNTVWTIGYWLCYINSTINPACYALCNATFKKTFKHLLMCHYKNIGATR

[11] = target: Sodium-dependent serotonin transporter (Homo sapiens) (UniProt P31645); assay: Inhibition of SERT (unknown origin) at 10 uM by CEREP analysis relative to control
[12] = target: 3',5'-cyclic-AMP phosphodiesterase 4D (Homo sapiens) (UniProt Q08499); assay: Inhibition of PDE4D2 (unknown origin) at 10 uM by CEREP analysis relative to control
[13] = target: Vascular endothelial growth factor receptor 2 (Homo sapiens, UniProt P35968); assay: Inhibition of KDR (unknown origin) by fluorescence-based microfluidic mobility shift assay
BaF3 [14] = assay: cells; conditions: Mus musculus, BaF3, 72 h; remark: listed apart in the source
BaF3 [15] = assay: cells; conditions: Mus musculus, BaF3, 72 h; remark: listed apart in the source
BaF3 [16] = assay: cells; conditions: Mus musculus, BaF3, 72 h; remark: listed apart in the source
BaF3 [17] = assay: cells; conditions: Mus musculus, BaF3, 72 h; remark: listed apart in the source
BaF3 [18] = assay: cells; conditions: Mus musculus, BaF3, 72 h; remark: listed apart in the source
BaF3 [19] = assay: cells; conditions: Mus musculus, BaF3, 72 h; remark: listed apart in the source
BaF3 [20] = assay: cells; conditions: Mus musculus, BaF3, 72 h; remark: listed apart in the source
BaF3 [21] = assay: cells; conditions: Mus musculus, BaF3, 72 h; remark: listed apart in the source
BaF3 [22] = assay: cells; conditions: Mus musculus, BaF3, 72 h; remark: listed apart in the source
BaF3 [23] = assay: cells; conditions: Mus musculus, BaF3, 72 h; remark: listed apart in the source
BaF3 [24] = assay: cells; conditions: Mus musculus, BaF3, 72 h; remark: listed apart in the source
BaF3 [25] = assay: cells; conditions: Mus musculus, BaF3, 72 h; remark: listed apart in the source
BaF3 [26] = assay: cells; conditions: Mus musculus, BaF3, 72 h; remark: listed apart in the source
[27] = target: Tyrosine-protein kinase receptor UFO (Homo sapiens, UniProt P30530); assay: Inhibition of AXL (unknown origin) by fluorescence-based microfluidic mobility shift assay
[28] = target: Tyrosine-protein kinase Mer (Homo sapiens, UniProt Q12866); assay: Inhibition of MERTK (unknown origin) by fluorescence-based microfluidic mobility shift assay
[29] = Clearance in mouse; assay type: ADME, organism-based; conditions: in vivo

Sequence of Sodium-dependent serotonin transporter (Homo sapiens) (P31645 whole entry, looked up): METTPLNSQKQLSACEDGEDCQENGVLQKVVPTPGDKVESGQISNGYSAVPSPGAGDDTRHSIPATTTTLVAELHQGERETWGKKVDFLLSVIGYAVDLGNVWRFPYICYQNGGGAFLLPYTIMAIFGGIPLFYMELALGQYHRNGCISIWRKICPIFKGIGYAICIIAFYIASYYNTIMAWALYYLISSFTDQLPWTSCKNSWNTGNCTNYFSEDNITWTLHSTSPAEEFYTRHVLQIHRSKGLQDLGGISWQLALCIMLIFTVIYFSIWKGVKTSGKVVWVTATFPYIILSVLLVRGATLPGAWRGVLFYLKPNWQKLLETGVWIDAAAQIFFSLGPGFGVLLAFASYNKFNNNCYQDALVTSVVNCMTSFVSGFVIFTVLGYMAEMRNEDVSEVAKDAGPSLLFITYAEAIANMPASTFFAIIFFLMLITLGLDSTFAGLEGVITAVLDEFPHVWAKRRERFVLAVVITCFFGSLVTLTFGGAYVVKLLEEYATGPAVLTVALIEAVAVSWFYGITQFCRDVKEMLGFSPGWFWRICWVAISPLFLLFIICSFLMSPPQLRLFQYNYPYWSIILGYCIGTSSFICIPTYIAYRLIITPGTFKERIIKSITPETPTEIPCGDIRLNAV
Sequence of 5-hydroxytryptamine receptor 1B (Homo sapiens) (P28222 whole entry): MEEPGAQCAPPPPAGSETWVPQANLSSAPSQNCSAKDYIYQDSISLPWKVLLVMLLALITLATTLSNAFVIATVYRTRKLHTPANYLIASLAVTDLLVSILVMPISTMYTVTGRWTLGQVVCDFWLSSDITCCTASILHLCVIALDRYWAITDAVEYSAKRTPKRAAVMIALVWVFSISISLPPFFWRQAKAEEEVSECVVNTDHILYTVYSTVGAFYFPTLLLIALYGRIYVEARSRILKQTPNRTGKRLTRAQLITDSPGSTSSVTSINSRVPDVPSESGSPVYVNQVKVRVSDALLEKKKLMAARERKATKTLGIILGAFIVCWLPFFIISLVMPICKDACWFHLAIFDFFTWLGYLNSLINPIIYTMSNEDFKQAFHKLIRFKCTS
Sequence of 3',5'-cyclic-AMP phosphodiesterase 4D (Homo sapiens) (Q08499 whole entry): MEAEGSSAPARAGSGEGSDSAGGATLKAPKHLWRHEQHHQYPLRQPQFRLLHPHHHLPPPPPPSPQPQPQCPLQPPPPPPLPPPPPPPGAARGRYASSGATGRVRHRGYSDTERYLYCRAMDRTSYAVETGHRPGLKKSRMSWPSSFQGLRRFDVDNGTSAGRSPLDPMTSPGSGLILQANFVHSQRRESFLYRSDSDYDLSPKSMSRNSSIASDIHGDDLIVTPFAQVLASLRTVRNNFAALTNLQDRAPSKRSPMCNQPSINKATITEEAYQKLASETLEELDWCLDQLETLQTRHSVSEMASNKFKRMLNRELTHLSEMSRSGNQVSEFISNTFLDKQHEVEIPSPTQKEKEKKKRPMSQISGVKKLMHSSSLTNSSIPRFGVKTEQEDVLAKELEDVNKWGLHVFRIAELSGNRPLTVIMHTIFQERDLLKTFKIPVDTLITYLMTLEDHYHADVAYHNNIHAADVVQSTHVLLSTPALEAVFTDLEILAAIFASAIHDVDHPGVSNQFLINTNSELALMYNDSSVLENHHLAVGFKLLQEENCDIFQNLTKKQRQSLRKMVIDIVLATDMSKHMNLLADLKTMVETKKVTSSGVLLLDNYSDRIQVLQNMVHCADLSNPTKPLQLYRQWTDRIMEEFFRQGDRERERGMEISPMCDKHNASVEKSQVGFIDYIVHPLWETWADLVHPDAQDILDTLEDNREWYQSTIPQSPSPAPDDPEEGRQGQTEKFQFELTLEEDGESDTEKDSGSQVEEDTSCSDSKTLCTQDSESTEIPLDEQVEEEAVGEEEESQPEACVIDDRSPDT
Sequence of cGMP-inhibited 3',5'-cyclic phosphodiesterase 3A (Homo sapiens) (Q14432 whole entry): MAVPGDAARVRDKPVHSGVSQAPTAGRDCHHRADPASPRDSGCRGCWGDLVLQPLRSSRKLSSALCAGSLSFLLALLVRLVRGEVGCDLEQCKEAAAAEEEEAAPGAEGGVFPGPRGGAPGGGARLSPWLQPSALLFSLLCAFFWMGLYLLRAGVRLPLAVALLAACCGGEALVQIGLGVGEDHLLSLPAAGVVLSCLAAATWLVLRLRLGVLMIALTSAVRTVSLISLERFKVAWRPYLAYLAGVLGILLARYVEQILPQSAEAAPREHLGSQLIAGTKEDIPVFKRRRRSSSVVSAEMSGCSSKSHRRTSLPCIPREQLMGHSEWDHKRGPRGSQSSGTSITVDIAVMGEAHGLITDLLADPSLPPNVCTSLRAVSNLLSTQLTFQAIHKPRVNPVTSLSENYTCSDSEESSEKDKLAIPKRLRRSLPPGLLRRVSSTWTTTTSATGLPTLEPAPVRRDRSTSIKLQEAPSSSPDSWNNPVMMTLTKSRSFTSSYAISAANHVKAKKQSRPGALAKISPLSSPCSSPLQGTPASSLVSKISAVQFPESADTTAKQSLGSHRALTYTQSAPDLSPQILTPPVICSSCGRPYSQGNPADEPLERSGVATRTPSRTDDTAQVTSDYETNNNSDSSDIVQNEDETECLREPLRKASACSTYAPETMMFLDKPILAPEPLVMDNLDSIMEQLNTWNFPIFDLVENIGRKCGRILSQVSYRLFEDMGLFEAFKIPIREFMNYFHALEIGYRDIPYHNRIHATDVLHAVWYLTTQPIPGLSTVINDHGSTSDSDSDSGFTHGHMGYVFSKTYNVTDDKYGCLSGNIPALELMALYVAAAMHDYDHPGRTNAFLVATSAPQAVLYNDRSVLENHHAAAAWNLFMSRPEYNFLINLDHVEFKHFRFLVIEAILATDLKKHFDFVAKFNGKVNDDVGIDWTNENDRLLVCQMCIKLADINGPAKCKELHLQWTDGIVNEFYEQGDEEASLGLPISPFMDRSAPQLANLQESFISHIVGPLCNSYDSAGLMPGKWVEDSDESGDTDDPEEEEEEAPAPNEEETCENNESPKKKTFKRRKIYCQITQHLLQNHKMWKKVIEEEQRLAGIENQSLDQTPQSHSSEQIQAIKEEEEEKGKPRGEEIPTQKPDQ
Sequence of 5-hydroxytryptamine receptor 2B (Homo sapiens) (P41595 whole entry): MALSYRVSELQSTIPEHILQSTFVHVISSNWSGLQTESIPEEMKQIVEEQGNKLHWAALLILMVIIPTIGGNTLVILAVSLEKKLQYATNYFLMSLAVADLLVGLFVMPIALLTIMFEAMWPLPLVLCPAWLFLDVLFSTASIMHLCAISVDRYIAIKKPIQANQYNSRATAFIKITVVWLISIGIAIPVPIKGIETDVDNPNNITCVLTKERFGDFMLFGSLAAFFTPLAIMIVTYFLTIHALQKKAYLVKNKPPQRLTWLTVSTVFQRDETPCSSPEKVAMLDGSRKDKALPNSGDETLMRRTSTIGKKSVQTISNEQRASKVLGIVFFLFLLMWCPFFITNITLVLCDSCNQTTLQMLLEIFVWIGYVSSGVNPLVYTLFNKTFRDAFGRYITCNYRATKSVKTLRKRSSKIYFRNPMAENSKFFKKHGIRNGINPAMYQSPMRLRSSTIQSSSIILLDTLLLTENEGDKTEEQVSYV
Sequence of hERG (Q12809 whole entry): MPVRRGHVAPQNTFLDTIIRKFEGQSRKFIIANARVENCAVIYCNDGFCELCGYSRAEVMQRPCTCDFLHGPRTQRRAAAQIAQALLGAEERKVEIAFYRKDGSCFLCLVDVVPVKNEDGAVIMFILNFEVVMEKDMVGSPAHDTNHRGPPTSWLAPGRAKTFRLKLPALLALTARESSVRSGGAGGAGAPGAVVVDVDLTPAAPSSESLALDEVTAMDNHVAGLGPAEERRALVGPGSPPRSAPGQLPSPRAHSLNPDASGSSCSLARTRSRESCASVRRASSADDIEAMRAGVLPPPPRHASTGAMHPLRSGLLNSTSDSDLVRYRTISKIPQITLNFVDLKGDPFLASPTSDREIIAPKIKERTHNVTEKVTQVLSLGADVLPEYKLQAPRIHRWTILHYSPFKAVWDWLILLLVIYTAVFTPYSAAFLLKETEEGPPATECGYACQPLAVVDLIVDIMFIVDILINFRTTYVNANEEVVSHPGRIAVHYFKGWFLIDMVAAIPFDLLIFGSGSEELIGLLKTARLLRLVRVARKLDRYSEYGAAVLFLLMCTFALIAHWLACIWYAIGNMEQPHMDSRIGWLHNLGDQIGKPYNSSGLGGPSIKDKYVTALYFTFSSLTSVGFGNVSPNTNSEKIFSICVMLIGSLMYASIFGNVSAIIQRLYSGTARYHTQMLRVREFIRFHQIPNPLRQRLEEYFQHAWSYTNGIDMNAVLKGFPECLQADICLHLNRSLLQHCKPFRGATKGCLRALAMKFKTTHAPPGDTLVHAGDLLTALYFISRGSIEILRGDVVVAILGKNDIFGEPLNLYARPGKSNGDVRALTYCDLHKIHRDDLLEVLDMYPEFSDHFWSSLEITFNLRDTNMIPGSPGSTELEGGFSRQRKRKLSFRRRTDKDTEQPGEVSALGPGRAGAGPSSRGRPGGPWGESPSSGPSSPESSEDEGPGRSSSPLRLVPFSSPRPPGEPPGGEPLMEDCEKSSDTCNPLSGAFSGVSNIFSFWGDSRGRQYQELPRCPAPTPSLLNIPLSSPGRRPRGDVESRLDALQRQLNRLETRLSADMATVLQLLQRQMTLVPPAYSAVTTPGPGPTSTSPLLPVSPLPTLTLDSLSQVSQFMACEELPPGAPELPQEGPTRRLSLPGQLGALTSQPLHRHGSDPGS

| bioavailability [2] [%] | solubility kinetic [3] [µM] | inhibition [4] [%] | inhibition [5] [%] | inhibition (Homo sapiens) [%] | solubility kinetic [6] [µM] | inhibition [7] [%] | inhibition [8] [%] | EC50 (BaF3 [9]) [nM] | inhibition at 10 µM (L-type calcium channel) [%] | EC50 (cells) [nM] | inhibition [10] [%] | inhibition [11] [%] | inhibition [12] [%] | SMILES | inhibition at 10 µM (hERG) [%] | further results |
| --- | --- | --- | --- | --- | --- | --- | --- | --- | --- | --- | --- | --- | --- | --- | --- | --- |
| ~100 | 315 (≈ 157 µg/mL) | 18 | 8 | 30 | 11 (≈ 5.47 µg/mL) | 98 | -8 | 31 | -3 | 36 | 12 | 7 | 90 | COc1cc2c(Oc3c(F)cc(NC(=O)c4cnccc4OC)cc3F)ccnc2cc1OCCO | 3 | bioavailability [1]: ~100% |
| – | 4 (≈ 2.48 µg/mL) | – | – | – | 0.12 (≈ 0.0744 µg/mL) | – | – | – | – | – | – | – | – | COCCNCc1ccc(-c2cc3nccc(Oc4ccc(NC(=S)NC(=O)Cc5ccc(F)cc5)cc4F)c3s2)nc1 [GLESATINIB] | – | IC50 [13]: 0.5 nM |
| – | 0.4 (≈ 0.221 µg/mL) | – | – | – | 0.08 (≈ 0.0442 µg/mL) | – | – | 116 | – | 25 | – | – | – | Cc1ccc(C(=O)Nc2ccc(Oc3cc4cnn(C)c4cc3-c3cn[nH]c3)c(F)c2)c(=O)n1-c1ccc(F)cc1 [MERESTINIB] | – | EC50 (BaF3 [14]): 511 nM; EC50 (BaF3 [15]): 129 nM; EC50 (BaF3 [16]): 7.8 nM; EC50 (BaF3 [17]): 203 nM; EC50 (BaF3 [18]): 255 nM; EC50 (BaF3 [19]): 23 nM; EC50 (BaF3 [20]): 26 nM; EC50 (BaF3 [21]): 249 nM; EC50 (BaF3 [22]): 91 nM; EC50 (BaF3 [23]): 21 nM; EC50 (BaF3 [24]): 64 nM; EC50 (BaF3 [25]): 18 nM; EC50 (BaF3 [26]): 837 nM; IC50 [27]: 0.5 nM; IC50 [28]: 0.5 nM; IC50 [13]: 341 nM |
| – | 21 (≈ 10.5 µg/mL) | – | – | – | 5.2 (≈ 2.61 µg/mL) | – | – | – | – | – | – | – | – | COc1cc2nccc(Oc3ccc(NC(=O)C4(C(=O)Nc5ccc(F)cc5)CC4)cc3)c2cc1OC [CABOZANTINIB] | – | – |
| – | 288 (≈ 142 µg/mL) | – | – | – | 4.4 (≈ 2.17 µg/mL) | – | – | 26 | – | 43 | – | – | – | COc1cc2nccc(Oc3c(F)cc(NC(=O)c4cnccc4OC4CC4)cc3F)c2cc1OC | – | – |
| < 5 | 276 (≈ 141 µg/mL) | 58 | 54 | 89 | 208 (≈ 106 µg/mL) | -2 | 54 | 41 | 41 | 59 | 3 | 101 | 11 | CNCCOc1cc2nccc(Oc3c(F)cc(NC(=O)c4cnccc4OC)cc3F)c2cc1OC | 70 | clearance [29]: 43 mL/min/kg |
| ~100 | 312 (≈ 163 µg/mL) | 69 | -1 | 57 | 8.1 (≈ 4.24 µg/mL) | 99 | 22 | 14 | 50 | 18 | 81 | 4 | 96 | COc1cc2c(Oc3c(F)cc(NC(=O)c4cnccc4OC4CC4)cc3F)ccnc2cc1OCCO | 13 | clearance [29]: 5.4 mL/min/kg |
